Where two headings read alike, the source gives them in different places.
Test system: Enterobacter cloacae (ECL) isolates
Test: MIC of compounds alone and combined with antibacterials, broth microdilution (CLSI)
Assay type: cell-based
Conditions: for MIC: Enterobacter cloacae
How it was run: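 First, log-phase suspensions are brought to a final 5·10^5 CFU/mL in cation-adjusted Mueller-Hinton broth. Then plates with compound, antibacterial, or both incubate 16-20 h at 35° C under ambient air. Finally, visual inspection gives the lowest growth-preventing concentration for each agent.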

[1] = ATB alone, strain ECL UFR198 (TEM-1, SHV-12, CTX-M-15, DHA-1, OXA-1, OXA-48)
[2] = strain ECL 190310 (AmpC), ATB alone
[3] = strain ECL 200138 (AmpC), ATB alone
[4] = strain ECL 260033 (AmpC), ATB alone
[5] = strain ECL 260323 (AmpC), ATB alone
[6] = strain ECL UFR12 (CTX-M-9, OXA-48), ATB alone
[7] = strain ECL UFR13 (TEM-1, SHV-12, CTX-M-9, OXA-48), ATB alone
[8] = strain ECL UFR14 (TEM-1, SHV-12, CTX-M-15, DHA-1, OXA-1, OXA-48), ATB alone
[9] = strain ECL UFR194 (OXA-48), ATB alone
[10] = strain ECL UFR196 (TEM-1, CTX-M-15, OXA-1, OXA-48), ATB alone
[11] = strain ECL UFR200 (TEM-1, SHV-12, KPC-2), ATB alone
[12] = strain ECL UFR195, antibacterial combined with AF1 @ 4 μg/mL
[13] = strain ECL UFR197, antibacterial combined with AF1 @ 4 μg/mL

Compound: CC(C)(O/N=C(\C(=O)N[C@@H]1C(=O)N2C(C(=O)[O-])=C(C[n+]3ccccc3)CS[C@H]12)c1csc(N)n1)C(=O)O [CAZ, Ceftazidime]
- MIC ATB in combination (ECL 2185D, AF1 @ 8 μg/mL): 4 µg/mL
- MIC ATB in combination (ECL 190310, AF1 @ 4 μg/mL): 4 µg/mL
- MIC ATB in combination (ECL 190310, AF1 @ 8 μg/mL): 2 µg/mL
- MIC ATB in combination (ECL 190408, AF1 @ 4 μg/mL): <=0.25 μg/mL
- MIC ATB in combination (ECL 190408, AF1 @ 8 μg/mL): <0.25 µg/mL
- MIC ATB in combination (ECL 200138, AF1 @ 4 μg/mL): 8 µg/mL
- MIC ATB in combination (ECL 200138, AF1 @ 8 μg/mL): 2 µg/mL
- MIC ATB in combination (ECL 200322, AF1 @ 4 μg/mL): 0.5 µg/mL
- MIC ATB in combination (ECL 200322, AF1 @ 8 μg/mL): 0.5 µg/mL
- MIC ATB in combination (ECL 260033, AF1 @ 4 μg/mL): 8 µg/mL
- MIC ATB in combination (ECL 260033, AF1 @ 8 μg/mL): <0.25 µg/mL
- MIC ATB in combination (ECL 260253, AF1 @ 4 μg/mL): 16 µg/mL
- MIC ATB in combination (ECL 260253, AF1 @ 8 μg/mL): 4 µg/mL
- MIC ATB in combination (ECL 260323, AF1 @ 8 μg/mL): 32 µg/mL
- MIC ATB in combination (ECL 260508, AF1 @ 4 μg/mL): 1 µg/mL
- MIC ATB in combination (ECL 260508, AF1 @ 8 μg/mL): <=0.25 μg/mL
- MIC ATB in combination (ECL NEM146383, AF1 @ 4 μg/mL): 2 µg/mL
- MIC ATB in combination (ECL NEM146383, AF1 @ 8 μg/mL): 2 µg/mL
- MIC ATB in combination (ECL P99, AF1 @ 4 μg/mL): 2 µg/mL
- MIC ATB in combination (ECL P99, AF1 @ 8 μg/mL): <=0.25 μg/mL
- MIC ATB in combination (ECL UFR12, AF1 @ 4 μg/mL): 0.5 µg/mL
- MIC ATB in combination (ECL UFR12, AF1 @ 8 μg/mL): <=0.25 μg/mL
- MIC ATB in combination (ECL UFR13, AF1 @ 4 μg/mL): 0.5 µg/mL
- MIC ATB in combination (ECL UFR13, AF1 @ 8 μg/mL): 0.5 µg/mL
- MIC ATB in combination (ECL UFR14, AF1 @ 4 μg/mL): 2 µg/mL
- MIC ATB in combination (ECL UFR14, AF1 @ 8 μg/mL): 1 µg/mL
- MIC ATB in combination (ECL UFR60, AF1 @ 4 μg/mL): 16 µg/mL
- MIC ATB in combination (ECL UFR60, AF1 @ 8 μg/mL): 4 µg/mL
- MIC ATB in combination (ECL UFR70, AF1 @ 4 μg/mL): 2 µg/mL
- MIC ATB in combination (ECL UFR70, AF1 @ 8 μg/mL): 0.5 µg/mL
- MIC ATB in combination (ECL UFR84, AF1 @ 4 μg/mL): 4 µg/mL
- MIC ATB in combination (ECL UFR84, AF1 @ 8 μg/mL): 1 µg/mL
- MIC ATB in combination (ECL UFR85, AF1 @ 4 μg/mL): 1 µg/mL
- MIC ATB in combination (ECL UFR85, AF1 @ 8 μg/mL): <=0.25 μg/mL
- MIC ATB in combination (ECL UFR194, AF1 @ 4 μg/mL): 0.5 µg/mL
- MIC ATB in combination (ECL UFR194, AF1 @ 8 μg/mL): <=0.25 μg/mL
- MIC ATB in combination (ECL UFR200, AF1 @ 4 μg/mL): 0.5 µg/mL
- MIC ATB in combination (ECL UFR200, AF1 @ 8 μg/mL): <=0.25 μg/mL
- MIC [1]: > 256 µg/mL
- MIC [2]: 256 µg/mL
- MIC [3]: > 256 µg/mL
- MIC [4]: 512 µg/mL
- MIC [5]: > 256 µg/mL
- MIC [6]: 2 µg/mL
- MIC [7]: > 256 µg/mL
- MIC [8]: > 256 µg/mL
- MIC [9]: 1 µg/mL
- MIC [10]: > 256 µg/mL
- MIC [11]: > 256 µg/mL
- MIC ATB in combination [12]: 1 µg/mL
- MIC ATB in combination (strain ECL UFR195, antibacterial combined with AF1 @ 8 μg/mL): 0.5 µg/mL
- MIC ATB in combination (strain ECL UFR196, antibacterial combined with AF1 @ 4 μg/mL): 2 µg/mL
- MIC ATB in combination (strain ECL UFR196, antibacterial combined with AF1 @ 8 μg/mL): 0.5 µg/mL
- MIC ATB in combination [13]: 1 µg/mL
- MIC ATB in combination (strain ECL UFR197, antibacterial combined with AF1 @ 8 μg/mL): 0.5 µg/mL
- MIC ATB in combination (strain ECL UFR198, antibacterial combined with AF1 @ 4 μg/mL): 4 µg/mL
- MIC ATB in combination (strain ECL UFR198, antibacterial combined with AF1 @ 8 μg/mL): 4 µg/mL

Compound: CC1(C)S[C@@H]2[C@H](NC(=O)[C@H](N)c3ccc(O)cc3)C(=O)N2[C@H]1C(=O)O [AMX, Amoxicillin]
- MIC ATB in combination: 128 µg/mL
- MIC ATB in combination (ECL 190408, AF1 @ 4 μg/mL): 8 µg/mL
- MIC ATB in combination (ECL 200138, AF1 @ 4 μg/mL): 256 µg/mL
- MIC ATB in combination (ECL 260033, AF1 @ 4 μg/mL): 256 µg/mL
- MIC ATB in combination (ECL 260253, AF1 @ 4 μg/mL): 256 µg/mL
- MIC ATB in combination (ECL 260323, AF1 @ 4 μg/mL): 256 µg/mL
- MIC ATB in combination (ECL UFR13, AF1 @ 4 μg/mL): 256 µg/mL
- MIC ATB in combination (ECL UFR70, AF1 @ 4 μg/mL): 64 µg/mL
- MIC ATB in combination (ECL UFR85, AF1 @ 4 μg/mL): 256 µg/mL
- MIC ATB in combination (ECL UFR194, AF1 @ 4 μg/mL): 256 µg/mL
- MIC ATB in combination (ECL UFR200, AF1 @ 4 μg/mL): 256 µg/mL
- MIC (ATB alone, strain ECL UFR197 (TEM-1, CTX-M-15, OXA-1, OXA-48)): > 128 µg/mL
- MIC [1]: > 128 µg/mL
- MIC (ATB combined with CLA @ 4 μg/ml, strain ECL UFR197 (TEM-1, CTX-M-15, OXA-1, OXA-48)): > 128 µg/mL
- MIC (ATB combined with CLA @ 4 μg/ml, strain ECL UFR198 (TEM-1, SHV-12, CTX-M-15, DHA-1, OXA-1, OXA-48)): > 128 µg/mL
- MIC (strain ECL 2185D (OXA-163), ATB alone): > 256 µg/mL
- MIC (strain ECL 2185D (OXA-163), CLA @ 4 μg/ml+ ATB): > 128 µg/mL
- MIC [2]: > 256 µg/mL
- MIC (strain ECL 190310 (AmpC), CLA @ 4 μg/ml+ ATB): > 128 µg/mL
- MIC (strain ECL 190408 (TEM-1, CTX-M-15, OXA-1), ATB alone): > 256 µg/mL
- MIC (strain ECL 190408 (TEM-1, CTX-M-15, OXA-1), CLA @ 4 μg/ml+ ATB): > 128 µg/mL
- MIC [3]: > 256 µg/mL
- MIC (strain ECL 200138 (AmpC), CLA @ 4 μg/ml+ ATB): > 128 µg/mL
- MIC (strain ECL 200322 (TEM-1, CTX-M-15, OXA-1), ATB alone): > 256 µg/mL
- MIC (strain ECL 200322 (TEM-1, CTX-M-15, OXA-1), CLA @ 4 μg/ml+ ATB): > 128 µg/mL
- MIC [4]: > 256 µg/mL
- MIC (strain ECL 260033 (AmpC), CLA @ 4 μg/ml+ ATB): > 128 µg/mL
- MIC (strain ECL 260253 (TEM-1, KPC-3), ATB alone): > 256 µg/mL
- MIC (strain ECL 260253 (TEM-1, KPC-3), CLA @ 4 μg/ml+ ATB): > 128 µg/mL
- MIC [5]: > 256 µg/mL
- MIC (strain ECL 260323 (AmpC), CLA @ 4 μg/ml+ ATB): > 128 µg/mL
- MIC (strain ECL 260508 (TEM-1, CTX-M-15), ATB alone): > 256 µg/mL
- MIC (strain ECL 260508 (TEM-1, CTX-M-15), CLA @ 4 μg/ml+ ATB): > 128 µg/mL
- MIC (strain ECL NEM146383 (AmpC), ATB alone): > 256 µg/mL
- MIC (strain ECL NEM146383 (AmpC), CLA @ 4 μg/ml+ ATB): > 128 µg/mL
- MIC (strain ECL P99 (AmpC), ATB alone, read-out: MIC): > 1020 µg/mL
- MIC (strain ECL P99 (AmpC), CLA @ 4 μg/ml+ ATB): > 512 µg/mL
- MIC [6]: > 256 µg/mL
- MIC (strain ECL UFR12 (CTX-M-9, OXA-48), CLA @ 4 μg/ml+ ATB): > 128 µg/mL
- MIC [7]: > 256 µg/mL
- MIC (strain ECL UFR13 (TEM-1, SHV-12, CTX-M-9, OXA-48), CLA @ 4 μg/ml+ ATB): > 128 µg/mL
- MIC [8]: > 256 µg/mL
- MIC (strain ECL UFR14 (TEM-1, SHV-12, CTX-M-15, DHA-1, OXA-1, OXA-48), CLA @ 4 μg/ml+ ATB): > 128 µg/mL
- MIC (strain ECL UFR60 (TEM-1, CTX-M-15, KPC-2), ATB alone): > 256 µg/mL
- MIC (strain ECL UFR60 (TEM-1, CTX-M-15, KPC-2), CLA @ 4 μg/ml+ ATB): > 128 µg/mL
- MIC (strain ECL UFR70 (TEM-1, CTX-M-15, CMY-2, OXA-1, Porin loss), ATB alone): > 256 µg/mL
- MIC (strain ECL UFR70 (TEM-1, CTX-M-15, CMY-2, OXA-1, Porin loss), CLA @ 4 μg/ml+ ATB): > 128 µg/mL
- MIC (strain ECL UFR84 (TEM-1, AmpC, OXA-1), ATB alone): > 256 µg/mL
- MIC (strain ECL UFR84 (TEM-1, AmpC, OXA-1), CLA @ 4 μg/ml+ ATB): > 128 µg/mL
- MIC (strain ECL UFR85 (TEM-1, CTX-M-15, AmpC), ATB alone): > 256 µg/mL
- MIC (strain ECL UFR85 (TEM-1, CTX-M-15, AmpC), CLA @ 4 μg/ml+ ATB): > 128 µg/mL
- MIC [9]: > 128 µg/mL
- MIC (strain ECL UFR194 (OXA-48), CLA @ 4 μg/ml+ ATB): > 128 µg/mL
- MIC (strain ECL UFR195 (TEM-1, CTX-M-15, OXA-1, OXA-48), ATB alone): > 128 µg/mL
- MIC (strain ECL UFR195 (TEM-1, CTX-M-15, OXA-1, OXA-48), CLA @ 4 μg/ml+ ATB): > 128 µg/mL
- MIC [10]: > 128 µg/mL
- MIC (strain ECL UFR196 (TEM-1, CTX-M-15, OXA-1, OXA-48), CLA @ 4 μg/ml+ ATB): > 128 µg/mL
- MIC [11]: > 128 µg/mL
- MIC (strain ECL UFR200 (TEM-1, SHV-12, KPC-2), CLA @ 4 μg/ml+ ATB): > 128 µg/mL
- MIC ATB in combination [12]: 256 µg/mL
- MIC ATB in combination [13]: 256 µg/mL

From US20200017496A1 (priority 2017, published 2020)
